Results: US20180362993A1, “ELICITOR-DERIVED PEPTIDES AND USE THEREOF” (Plant Health Care, Inc., priority 2017, published 2018)
Marks after values point to notes of the source that are not given here.

Experiments:
Format in all cases: in vivo
[1] = test system: tobacco mosaic virus (TMV); experiment: Induction of resistance to tobacco mosaic virus in tobacco (foliar spray); settings: for Effectiveness Covered (% decline in TMV lesions vs UTC): covered leaf (systemic response); for Effectiveness Uncovered (% decline in TMV lesions vs UTC): uncovered leaf (local response)
Procedure: Peptides were tested for the induction of resistance to tobacco mosaic virus (TMV) in tobacco. Briefly, three tobacco plants at 6-8 weeks old were selected per group (samples and controls). The bottom-most leaf of the plant was covered and the plant was sprayed with a solution of water (untreated control—UTC), peptide, or Proact (positive control). The spray was applied until the leaves were fully wetted, indicated by liquid dripping from the leaves. The plants were then allowed to dry and the leaf covering was removed.
Three days post-treatment, the previously-covered leaf and a leaf on the opposite side of the plant were then lightly dusted with diatomaceous earth and 20 ul of a 1.7 μg/ml solution of purified tobacco mosaic virus was applied. The TMV solution was then spread across the leaf surface by lightly rubbing solution and the diatomaceous earth across the surface of the leaves. Two minutes after inoculation, the diatomaceous earth was rinsed off the leaves with water. 3 days after TMV inoculation, the leaves were scored based on the number of TMV lesions observed. The leaf was also scored for signs of the hypersensitive response, including yellowing and wilting of the affected leaves.
Effectiveness described in Table 5 refers to the % decline in TMV lesions on treated vs UTC plants. A reduction of TMV on covered leaves indicates a systemic immune response in the plant while reduction on uncovered leaves indicates a local response. Asterisks indicate that the P-value derived from a T-test was <0.05.

[2] = test system: corn; experiment: Drought resistance in corn (foliar spray); settings: for Dry Weight Increase / Fresh Weight Increase: corn, vs untreated control
Procedure: The effectiveness of peptide treatment in reducing drought stress was assessed in corn. 3.5 inch pots were filled with Sunshine #1 soil (SunGro Horticulture), fertilized with a 20-10-20 mixture. The soil was soaked and drained overnight. Seeds (either corn or soy, manually inspected to ensure uniform seed size) were planted at a depth of 1 inch for germination. Plants were grown in a greenhouse under 16 hour light days at >70° F. and 8 hour dark nights at >65° F. Prior to drought conditions, the plants were well-watered.
When the plants reached the V1 stage, plants were culled to achieve a uniform height (abnormally large and small plants were removed). Plants were then randomly assigned to control (spray without peptide) or treatment (spray with peptide) groups and heights were measured. Peptide was made up in a solution of 0.2 μg/ml or 2μg/ml in distilled water+0.01% Tween-20, and applied as a fine mist from a spray bottle until the solution drips from the leaves. After the peptide solutions were dried, the plants were again randomized in a randomized complete block design. Drought stress was initiated after the peptide treatment. This was caused by maintaining the water level at 25-50% of the maximum capacity for water (capacity was decided as the weight of the pot filled with saturated soil minus the weight of the filled pot prior to adding water).
(§1) The drought test phase ended after 2-3 weeks. At that time, the plant height was again measured and the growth rate was calculated as the difference between this and the previously-recorded height. The above-ground part portions of the plants were harvested and weighed to obtain fresh weight. The above-ground portion was also dried in an oven at 70° C. for 72 hours to obtain dry weight. All calculations were compared with matched untreated control plants.
The drought testing procedure was carried out in corn using a treatment of P12, P13-10, P13-11, P13-12, P13-14, P13-4, and P13-15 (SEQ ID NOs: 5, 16, 17, 18, 20, 10, and 21). Asterisks indicate statistical significance by P-value (*: P<0.1 and **: P<0.05)

[3] = test system: soy; experiment: Drought resistance in soy (foliar spray); settings: foliar spray 0.2 μg/ml, vs untreated control
Procedure: The effectiveness of peptide treatment in reducing drought stress was assessed in […]. 3.5 inch pots were filled with Sunshine #1 soil (SunGro Horticulture), fertilized with a 20-10-20 mixture. The soil was soaked and drained overnight. Seeds (soy, manually inspected to ensure uniform seed size) were planted at a depth of half inch for germination. Plants were grown in a greenhouse under 16 hour light days at >70° F. and 8 hour dark nights at >65° F. Prior to drought conditions, the plants were well-watered.
When the plants reached the growth stage when first trifoliate expanded, plants were culled to achieve a uniform height (abnormally large and small plants were removed). Plants were then randomly assigned to control (spray without peptide) or treatment (spray with peptide) groups and heights were measured. Peptide was made up in a solution of 0.2 μg/ml or 2μg/ml in distilled water+0.04% Tween-20, and applied as a fine mist from a spray bottle until the solution drips from the leaves. After the peptide solutions were dried, the plants were again randomized in a randomized complete block design. Cyclic drought stress was initiated after the peptide treatment. Plants were subjected to at least three drought cycles of drought stress (3-5 days of withholding water and 1 day irrigated with saturating amount of water) before harvesting.
as §1
The drought testing procedure was carried out in soy using a treatment of P12-2, P13-4, P13-5, P13-7, P13-3, P13-14, P13-2, and P13-15 (SEQ ID NOs: 6, 10, 11, 13, 9, 20, 8, and 21). Asterisks indicate statistical significance by P-value (*: P<0.1 and **: P<0.05)

[4] = test system: corn; experiment: Drought resistance in seed-coated corn; settings: vs mock
Procedure: The effectiveness of peptide treatment in reducing the effects of drought stress was assessed in corn using a seed treatment strategy. This strategy largely mirrors example 2, except that the seeds were coated with a peptide formulation rather than a foliar spray application.
Seeds were first sieved using mesh screens to a uniform size (21-23/64 inches). The seeds were then coated with a mixture of peptide, Unicoat™ seed coat polymer, and a minimal volume of water in a Hege 11 Liquid Seed Treater (Wintersteiger) according to manufacturer recommendations. Seeds were coated with one of the following: (i) 0.12 μg peptide/seed, (ii) […], or (iii) a ‘mock’ treatment that included no peptide. The amount of peptide per seed assumes complete transfer of the peptide to seed surfaces in the seed coating chamber. Losses during coating were not considered.
(§2) 3.5 inch pots were filled (approximately 0.2 L per pot) with Sunshine #1 mix (SunGro Horticulture), fertilized with 14-14-14 N,P,K Osmocote (Everris), and mixed for 20 minutes using a soil mixer M-5. Seeds were planted at a depth of 0.5 inch for germination. The pots were immediately irrigated by submergence then drained after about an hour. For each treatment group, 24 replicate seeds were planted. Plants were grown in a greenhouse under 16 hour light days at ˜75° F. and 8 hour dark nights at ˜65° F. Prior to drought conditions, the plants were well-watered.
Three days after planting, the plants were randomized using a complete block design and subjected to a cyclic drought stress. Drought stress was imposed by withholding water for 2-3 days until the majority of plants were under medium to severe water stress. The severity of the stress was determined by the weight of the pot and visual determination of leaf curling. Once drought stress was attained, the pots were watered to full saturation. Full Saturation (100% pot capacity) is defined as the weight of the pot filled with water-saturated soil minus the weight of the filled pot prior to adding water. Drought stress was imposed for a total of 18 days.
At the end of the experiment (18 days after initiation of drought stress), the plant was then harvested for fresh and dry weights. Individual plants were cut near the soil surface and weighed immediately (fresh weight). The plants were then placed into labeled brown paper bags and dried in a 70° C. oven for 72 hours. A dry weight was then obtained.
The following calculation was performed on the collected data: Fresh weight at harvest and dry weight at harvest for the plants grown from peptide-treated seeds were expressed as a % change relative to the ‘mock’ treated plants.

[5] = test system: soy; experiment: Drought resistance in seed-treated soy; settings: vs mock
Procedure: The effectiveness of peptide treatment in reducing drought stress was assessed in soy using a seed treatment strategy. This strategy largely mirrors examples 3 and 4.
Seeds were first sieved using mesh screens to a uniform size (14-17 mesh). The seeds were then coated with a mixture of peptide and Unicoat™ seed coat polymer in a Hege 11 Liquid Seed Treater (Wintersteiger) according to manufacturer recommendations. […]
as §2
Seven days after germination the heights of the plants were measured. This was determined as the distance between the soil surface and the shoot apical meristems (buds). The plants were randomized using a complete block design and subjected to a cyclic drought stress. Drought stress was imposed by withholding water for 3-4 days until the majority of plants were under medium to severe water stress. The severity of the stress was determined by the weight of the pot and visual determination of loss of turgor in the leaves (drooping). Once drought stress was attained, the pots were watered to full saturation. Full Saturation (100% pot capacity) is defined as the weight of the pot filled with water-saturated soil minus the weight of the filled pot prior to adding water. Drought stress was imposed for a total of 18 days.
At the end of the experiment (18 days after initiation of drought stress), the plant above the soil surface was then harvested for fresh and dry weights. Individual plants were cut near the soil surface and weighed immediately (fresh weight). The plants were then placed into labeled brown paper bags and dried in a 70° C. oven for 72 hours. A dry weight was then obtained. The following calculation was performed on the collected data: Fresh weight at harvest, and dry weight at harvest for the peptide-treated plants were expressed as a % change relative to the ‘mock’ treated plants.

[6] = corn seed treatment 0.12 μg/seed
[7] = corn seed treatment 1.05 μg/seed

Row | Sequence | Effectiveness Covered (% decline in TMV lesions vs UTC) ([1]; 20 μg/ml spray) [%] | Effectiveness Uncovered (% decline in TMV lesions vs UTC) ([1]; 20 μg/ml spray) | Dry Weight Increase ([2]; foliar spray 2 μg/ml) | Fresh Weight Increase ([2]; foliar spray 2 μg/ml) | Dry Weight Increase ([2]; foliar spray 0.2 μg/ml) | Fresh Weight Increase ([2]; foliar spray 0.2 μg/ml) | % Change Dry Weight ([5]; soy seed treatment 0.9 μg/seed) [%] | % Change Fresh Weight ([5]; soy seed treatment 0.9 μg/seed) [%] | also measured
1 | QTGDDSLSGAGQTSGMSPMEQLMKIFADITQSLFGDQ (P13-13 peptide) [Peptide P13-13] | 38.5 | 36.6% | – | – | – | – | – | – | –
2 | QTGDDSLSGAGQTSGMSPMEQLMKIFADITQSLFGDQDG (P12 peptide) [Peptide P12] | – | – | 6.28** % | 4.87* % | – | – | – | – | Effectiveness Covered (% decline in TMV lesions vs UTC) ([1]; 10 μg/ml spray): 66* %; Effectiveness Uncovered (% decline in TMV lesions vs UTC) ([1]; 10 μg/ml spray): 53* %
3 | QTGDDSLSGAGQTSGMSPMEQLMKIFADITQSLFG (P13-14 peptide) [Peptide P13-14] | – | – | 2.48% | 4.36* % | – | – | – | – | Dry Weight Increase [3]: −3.68** %; Fresh Weight Increase [3]: −2.86%; % Change Dry Weight [4, 6]: 3.77%; % Change Fresh Weight [4, 6]: 9.11** %; % Change Dry Weight [4, 7]: 7.92** %; % Change Fresh Weight [4, 7]: 11.83** %
4 | LSGAGQTSGMSPMEQLMKIFADITQSLFGDQDG (P13-11 peptide) [Peptide P13-11] | 73.1 | 74.9* % | – | – | 4.91* % | 3.81* % | 0.16 | 3.42 | –
5 | DDSLSGAGQTSGMSPMEQLMKIFADITQSLFGDQDG (P13-10 peptide) [Peptide P13-10] | 92.4 | 90.6* % | 7.56* % | 4.44% | – | – | – | – | % Change Dry Weight ([5]; soy seed treatment 0.1 μg/seed): −1.66%; % Change Fresh Weight ([5]; soy seed treatment 0.1 μg/seed): 1.01%
6 | AGQTSGMSPMEQLMKIFADITQSLFGDQDG (P13-12 peptide) [Peptide P13-12] | 37.9 | 44.1% | – | – | 7.31* % | 3.93* % | −0.37 | 0.77 | Drought tolerance activity in corn, result in words ([2]; corn foliar spray): affords activity
